Results from ChEMBL document CHEMBL4330159, “Isoquinoline Alkaloids from Berberis vulgaris as Potential Lead Compounds for the Treatment of Alzheimer's Disease” (J Nat Prod, 2019).

Columns and labels:
Prolyl endopeptidase = target: T1, Prolyl endopeptidase (Homo sapiens, UniProt P48147); test: Inhibition of POP (unknown origin) using (Z)-Gly-Pro-p-nitroanilide as substrate preincubated for 5 mins followed by substrate addition and measured after 30 mins by spectrophotometric method
T1 sequence (P48147 whole entry): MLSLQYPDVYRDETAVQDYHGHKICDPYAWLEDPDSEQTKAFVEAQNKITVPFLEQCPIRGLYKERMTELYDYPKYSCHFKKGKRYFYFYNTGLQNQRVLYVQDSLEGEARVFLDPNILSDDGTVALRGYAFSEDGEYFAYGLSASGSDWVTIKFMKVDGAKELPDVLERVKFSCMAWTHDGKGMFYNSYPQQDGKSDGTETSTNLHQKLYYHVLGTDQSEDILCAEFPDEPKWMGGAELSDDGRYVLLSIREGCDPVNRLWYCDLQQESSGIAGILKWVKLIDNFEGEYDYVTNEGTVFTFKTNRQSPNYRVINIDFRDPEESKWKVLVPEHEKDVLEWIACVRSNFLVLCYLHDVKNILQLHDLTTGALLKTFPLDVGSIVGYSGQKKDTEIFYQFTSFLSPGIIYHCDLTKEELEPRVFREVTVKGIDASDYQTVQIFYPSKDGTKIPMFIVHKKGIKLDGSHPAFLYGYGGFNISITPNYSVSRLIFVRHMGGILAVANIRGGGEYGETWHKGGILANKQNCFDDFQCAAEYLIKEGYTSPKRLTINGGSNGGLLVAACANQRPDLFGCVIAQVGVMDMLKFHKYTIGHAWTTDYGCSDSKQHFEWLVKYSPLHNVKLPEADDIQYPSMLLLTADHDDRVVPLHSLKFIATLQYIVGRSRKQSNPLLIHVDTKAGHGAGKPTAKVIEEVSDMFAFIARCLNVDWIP

Cholinesterase [1] = target: T2, Cholinesterase (Homo sapiens, UniProt P06276); test: Inhibition of human BuChE using butyrylthiocholine iodide as substrate measured for 1 min by Ellman's method
Homo sapiens = organism: Homo sapiens; test: Selectivity index, ratio of IC50 for human BuChE to IC50 for human AChE
Acetylcholinesterase = Acetylcholinesterase (Homo sapiens, UniProt P22303)
Description: Inhibition of human AChE using acetylthiocholine iodide as substrate measured for 1 min by Ellman's method

Cholinesterase [2] = target: T2, Cholinesterase; test: Mixed-type inhibition of human BuChE assessed as enzyme-substrate-inhibitor complex using butyrylthiocholine iodide as substrate by Lineweaver-Burk plot analysis
[3] = Permeability of the compound after 2.45 hrs by PAMPA; type: ADME; settings: read-out: permeability
Cholinesterase [4] = target: T2, Cholinesterase; test: Mixed-type inhibition of human BuChE assessed as enzyme-inhibitor complex using butyrylthiocholine iodide as substrate by Lineweaver-Burk plot analysis
[5] = target: Glycogen synthase kinase-3 beta (Homo sapiens) (UniProt P49841); test: Inhibition of GSK3B (unknown origin) at 10 uM relative to control
Sequence of Glycogen synthase kinase-3 beta (Homo sapiens) (P49841 whole entry, looked up): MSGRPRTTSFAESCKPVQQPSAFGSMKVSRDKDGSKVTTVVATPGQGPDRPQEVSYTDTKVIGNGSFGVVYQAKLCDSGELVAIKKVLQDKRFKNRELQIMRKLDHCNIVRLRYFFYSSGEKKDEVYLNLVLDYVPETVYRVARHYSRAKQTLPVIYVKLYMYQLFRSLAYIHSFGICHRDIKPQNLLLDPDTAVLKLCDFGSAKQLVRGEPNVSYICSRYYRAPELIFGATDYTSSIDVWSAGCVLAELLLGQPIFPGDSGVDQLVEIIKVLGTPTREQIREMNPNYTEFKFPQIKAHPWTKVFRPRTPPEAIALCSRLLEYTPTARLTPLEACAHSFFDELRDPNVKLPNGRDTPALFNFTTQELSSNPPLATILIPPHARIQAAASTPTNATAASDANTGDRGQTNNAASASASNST

Sequence of Acetylcholinesterase (P22303 whole entry): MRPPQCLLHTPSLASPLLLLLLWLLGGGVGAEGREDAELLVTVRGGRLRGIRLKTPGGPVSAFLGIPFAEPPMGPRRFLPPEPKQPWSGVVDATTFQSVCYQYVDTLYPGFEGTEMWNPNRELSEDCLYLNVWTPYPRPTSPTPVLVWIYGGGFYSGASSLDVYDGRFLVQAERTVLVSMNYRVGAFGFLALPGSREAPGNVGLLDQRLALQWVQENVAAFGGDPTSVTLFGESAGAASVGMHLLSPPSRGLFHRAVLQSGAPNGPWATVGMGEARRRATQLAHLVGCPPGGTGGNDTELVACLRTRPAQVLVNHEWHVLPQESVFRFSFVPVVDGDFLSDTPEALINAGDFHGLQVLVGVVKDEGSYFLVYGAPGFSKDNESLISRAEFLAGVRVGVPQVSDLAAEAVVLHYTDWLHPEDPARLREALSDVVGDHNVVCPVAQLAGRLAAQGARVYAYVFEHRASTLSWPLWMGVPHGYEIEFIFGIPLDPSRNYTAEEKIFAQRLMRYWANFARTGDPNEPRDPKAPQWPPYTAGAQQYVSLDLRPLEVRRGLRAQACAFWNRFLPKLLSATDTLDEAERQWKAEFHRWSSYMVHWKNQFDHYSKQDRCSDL
T2 sequence (P06276 whole entry): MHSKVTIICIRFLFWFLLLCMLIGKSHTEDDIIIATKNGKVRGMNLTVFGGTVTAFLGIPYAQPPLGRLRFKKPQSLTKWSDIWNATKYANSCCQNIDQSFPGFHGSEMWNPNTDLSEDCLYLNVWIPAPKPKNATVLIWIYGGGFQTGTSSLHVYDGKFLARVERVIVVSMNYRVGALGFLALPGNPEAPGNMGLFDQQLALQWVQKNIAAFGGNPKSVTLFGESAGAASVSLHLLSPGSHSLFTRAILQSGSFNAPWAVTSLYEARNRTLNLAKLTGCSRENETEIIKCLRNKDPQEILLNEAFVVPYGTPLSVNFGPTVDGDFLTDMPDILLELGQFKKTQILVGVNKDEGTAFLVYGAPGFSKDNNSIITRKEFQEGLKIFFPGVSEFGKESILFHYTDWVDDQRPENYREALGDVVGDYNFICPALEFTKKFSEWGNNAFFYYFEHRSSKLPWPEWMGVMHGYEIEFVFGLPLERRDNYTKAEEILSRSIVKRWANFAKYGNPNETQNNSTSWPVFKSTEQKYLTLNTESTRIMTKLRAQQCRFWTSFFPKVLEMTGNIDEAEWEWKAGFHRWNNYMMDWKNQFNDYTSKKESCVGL

Compound | IC50 (Prolyl endopeptidase) [µM] | IC50 (Cholinesterase [1]) [µM] | Ratio IC50 (Homo sapiens) | IC50 (Acetylcholinesterase) [µM] | Ki (Cholinesterase [2]) [µM] | Papp at 2.45 h [3] [×10⁻⁶ cm/s] | Ki (Cholinesterase [4]) [µM] | inhibition [5] [%]
COc1ccc2cc3n(c(=O)c2c1OC)CCc1cc2c(cc1-3)OCO2 [OXYBERBERINE] | > 200 | 68 | 1.1 | > 100 |  |  |  | 
COc1cc2c(cc1Oc1c3c(cc(OC)c1OC)CCN(C)C3)C(Cc1ccc(O)cc1)N(C)CC2 (stereo not given) | > 200 | 68 | 0.2 | > 100 |  |  |  | 
C/C=C1\[C@H]2C=C(C)C[C@]1(N)c1ccc(=O)[nH]c1C2 [HUPERZINE A] |  | > 100 |  |  |  |  |  | 
COc1cc2c3cc1Oc1c(O)c(OC)cc4c1[C@@H](Cc1ccc(O)c(c1)Oc1ccc(cc1)C[C@@H]3N(C)CC2)N(C)CC4 [OBAMEGINE] | > 200 | > 100 | 1.5 | 97 |  |  |  | 
COc1ccc2c3c1O[C@H]1C[C@@H](O)C=C[C@@]31CCN(C)C2 [GALANTAMINE] | > 200 |  |  |  |  |  |  | 
COc1cc2c3cc1Oc1c(O)c(OC)cc4c1[C@H](Cc1ccc(cc1)Oc1cc(ccc1O)C[C@H]3N(C)CC2)N(C)CC4 | 189 | 0.8 | 0.008 | > 100 | 39.7 | 1.8 | 6.41 | 10
COc1cc2c(cc1OC)-c1cc3ccc(OC)c(OC)c3c[n+]1CC2 [PALMITINE] | > 200 | > 100 | 86 |  |  |  |  | 
CCN(CC)Cc1cc2cc(c1O)Oc1ccc(cc1)C[C@H]1c3cc(c(OC)cc3CCN1C)Oc1c(OC)c(OC)cc3c1[C@@H](C2)N(C)CC3 |  | > 100 |  | 68 |  |  |  | 
COc1ccc2cc3[n+](cc2c1OC)CCc1cc2c(cc1-3)OCO2 [BERBERINE] |  |  |  |  |  | 0.1 |  | 
COc1cc2c3cc1Oc1c(OC)c(OC)cc4c1[C@@H](Cc1ccc(O)c(c1)Oc1ccc(cc1)C[C@@H]3N(C)CC2)N(C)CC4 [BERBAMINE] | > 200 | > 100 | 0.4 | > 100 |  |  |  | 
COc1cc2c(cc1O)C(Cc1ccc(O)c(Oc3cc(CC4c5cc(O)c(OC)cc5CCN4C)ccc3OC)c1)N(C)CC2 (stereo not given) |  | 6.9 | 0.1 | 66 |  |  |  | 
